Values joined by “and” are separate entries in the source; they are usually repeats but may differ in a detail not shown here. Equal entries are not always repeated. “Also recorded” adds a separate entry of the source.
What was measured:
wt ClpB = molecular target: T1, wt ClpB (Escherichia coli, UniProt P63284); test: Surface plasmon resonance, immobilized wt ClpB; assay type: binding
T1 construct: made in house
Description: (§1) ClpB, DnaK, and the NBD of DnaK were extensively dialyzed against the SPR buffer (20-mM Hepes, pH 7.4, 150-mM NaCl, 20-mM MgCl2, 1-mM EDTA, 1-mM DTT). After dialysis, the protein concentration was determined by the Bradford method. The DBeQ–protein interactions were studied using a Biacore T200 instrument (GE Healthcare) at 25 °C. The proteins were diluted to 300 μg/ml in 10-mM sodium acetate buffer (pH 5 for ClpB DnaK or pH 4 for NBD) and immobilized on HC1500M sensor chips (Xantec) by standard amine coupling chemistry as described previously ([70]). A reference flow cell was created by ethyl(dimethylaminopropyl) carbodiimide/N-hydroxysuccinimide activation followed by quenching with 1 M ethanolamine (pH 9.0). Solvent correction curves were obtained at the beginning and end and after every 50 injection cycles by injecting varying DMSO concentrations (4.0, 4.4, 4.6, 4.8, 5.0, 5.2, 5.4, and 5.9% [v/v]). All experiments were performed using a flow rate of 30 μl/min.
Binding isotherms were obtained with the ligand diluted to different concentrations in the SPR running buffer HBSMTD (20-mM Hepes, pH 7.4, 140-mM NaCl, 20-mM MgCl2, 5% (v/v) DMSO, 0.005% (v/v) Tween-20). Replicate injections were performed for all samples, and a buffer-only injection was performed for every 12 injection cycles. To test the structural integrity of ClpB after immobilization on the sensor chips, we performed control titrations with ATPγS and adenosine. The dissociation constants determined from those experiments were ∼20 μM for ATPγS and ∼2 mM for adenosine. […] Moreover, the immobilized ClpB discriminated between a nucleotide analog and a nucleoside, which indicated an adequate structural integrity of ClpB on the sensor chips.
The resulting sensorgrams were analyzed using Biacore T200 Evaluation Software v3.0 according to the following procedure. Solvent correction curves were generated and applied to all data sets, and all sensorgrams were double-referenced by subtracting the most recent buffer blank injection. The signal immediately before injection stop of these corrected sensorgrams was treated as the binding response. GraphPad Prism was used for nonlinear least-squares fitting of the model assuming either noncooperative or cooperative binding of DBeQ to DnaK and ClpB, respectively.

DnaK = molecular target: T2, DnaK (Escherichia coli, UniProt P0A6Y8); test: Surface plasmon resonance, immobilized DnaK; assay type: binding
T2 construct: full-length E. coli DnaK (residues 1–638); made in house; host or cells: E. coli BL21(DE3)
Description: as §1, with “All experiments were performed using a flow rate of 30 μl/min.” left out
Binding isotherms were obtained with the ligand diluted to different concentrations in the SPR running buffer HBSMTD (20-mM Hepes, pH 7.4, 140-mM NaCl, 20-mM MgCl2, 5% (v/v) DMSO, 0.005% (v/v) Tween-20). […] The dissociation constants determined from those experiments were ∼20 μM for ATPγS and ∼2 mM for adenosine. […]
The resulting sensorgrams were analyzed using Biacore T200 Evaluation Software v3.0 according to the following procedure. […]

ClpB E279Q, E678Q = test: ATPase activity of ClpB Walker B variants E279Q and E678Q; assay type: biochemical, Escherichia coli; settings: with/without κ-casein
Description: (§2) To determine the ATPase activity, ClpB was diluted to 28 μg/ml (49-nM hexamer) in buffer C (50-mM Tris-HCl, pH 7.4, 20-mM MgCl2, 1-mM EDTA, 0.5-mM tris(2-carboxyethyl)phosphine [TCEP]). In some experiments, the ClpB solution was supplemented with 17.4 μg/ml (10 μM) κ-casein. The ClpB aliquots (18 μl) were mixed with 1 μl of the investigated compounds at different concentrations in 100% DMSO or with DMSO as a control. A sample without ClpB was used as a baseline control. After a 10-min preincubation at 37 or 45 °C, the ATP hydrolysis reaction was initiated by adding 1 μl of 100-mM ATP. The samples were incubated for 60 min (basal ClpB activity in the absence of κ-casein) or 15 min (in the presence of κ-casein) at 37 °C or 30 min at 45 °C in the absence of casein. For the E678Q ClpB variant, the incubation time in the presence of κ-casein was 60 min. After incubation, 15 μl of each sample was mixed with 200 μl of the ammonium molybdate/malachite green reagent ([67]) dispensed into a 96-well plate, followed by an addition of 30 μl of 34% sodium citrate ([68]). The plate was agitated inside a Synergy H1 reader (BioTek, Winooski, VT) for 15 min at room temperature, and the samples’ absorbance was measured at 630 nm. The readouts for ClpB-containing samples were corrected for absorbance of samples without ClpB, to account for nonenzymatic production of inorganic phosphate. […]

[1] = system: ClpB W462F, W543F, W462F/W543F; test: Basal ATPase activity of ClpB Trp/Phe variants; assay type: biochemical, Escherichia coli; settings: absence of casein
Description: as §2

E. coli MC4100ΔclpB = test: Bacterial growth and viability, MC4100ΔclpB; assay type: cell-based, Escherichia coli; settings: 37 °C
Description: (§3) E. coli MC4100, MC4100ΔclpB, dnaK103, and dnaK756 strains were used to determine an influence of DBeQ on bacterial growth and viability. Bacteria were maintained in the LB media, and in the case of the MC4100ΔclpB strain, LB was supplemented with 30 μg/ml kanamycin. All experiments were initiated by preparing overnight cultures inoculated from single colonies and grown at 37 °C. The dnaK103 and dnaK756 overnight cultures were grown at 30 °C. On the following day, the cultures were diluted 100-fold in 10 ml of LB without antibiotics and incubated at 37 °C. The culture optical density was monitored at 600 nm. When absorbance at 600 nm reached 0.4, the culture was divided into 1-ml aliquots and supplemented with 10 μl of DMSO or different concentrations of DBeQ in DMSO. The samples were immediately transferred into an incubator/shaker at temperature 37, 45, or 50 °C. Bacteria were cultured for up to 4 h with shaking (200 RPM). At specific time points, 100 μl of each culture was withdrawn and serially diluted in sterile 0.9% NaCl up to 10^6-fold dilution. To estimate the number of viable cells, 5 μl or 10 μl of the diluted cultures was spread on the LB-agar plate without an antibiotic. […] On the following day, the bacterial colonies were counted and the colony-forming units/ml were calculated.

E. coli dnaK756 = test: Bacterial viability, dnaK756; assay type: cell-based, Escherichia coli; settings: 45 °C
Description: as §3

T1 sequence (P63284 whole entry): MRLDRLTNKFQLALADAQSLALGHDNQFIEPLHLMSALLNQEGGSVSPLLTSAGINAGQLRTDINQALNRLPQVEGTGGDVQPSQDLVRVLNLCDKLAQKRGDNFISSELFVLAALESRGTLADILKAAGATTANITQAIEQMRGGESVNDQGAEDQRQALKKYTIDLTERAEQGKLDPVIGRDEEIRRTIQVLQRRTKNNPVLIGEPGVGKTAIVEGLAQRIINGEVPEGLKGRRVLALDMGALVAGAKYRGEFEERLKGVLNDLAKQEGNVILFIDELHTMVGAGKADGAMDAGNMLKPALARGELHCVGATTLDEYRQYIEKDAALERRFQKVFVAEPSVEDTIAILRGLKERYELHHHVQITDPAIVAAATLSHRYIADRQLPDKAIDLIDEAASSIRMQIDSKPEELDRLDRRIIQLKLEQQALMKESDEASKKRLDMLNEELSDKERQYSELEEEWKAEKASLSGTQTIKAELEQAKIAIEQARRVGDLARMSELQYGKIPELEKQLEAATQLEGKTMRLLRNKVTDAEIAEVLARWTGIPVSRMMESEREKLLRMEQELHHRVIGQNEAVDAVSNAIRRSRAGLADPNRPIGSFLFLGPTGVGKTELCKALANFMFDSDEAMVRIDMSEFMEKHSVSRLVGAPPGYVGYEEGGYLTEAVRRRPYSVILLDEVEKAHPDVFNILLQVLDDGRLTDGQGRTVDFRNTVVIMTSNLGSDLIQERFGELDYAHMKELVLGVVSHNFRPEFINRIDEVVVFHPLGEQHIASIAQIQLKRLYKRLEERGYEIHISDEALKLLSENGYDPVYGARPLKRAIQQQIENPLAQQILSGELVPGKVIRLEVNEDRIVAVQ
T2 sequence (P0A6Y8 whole entry, the tested form may be a part): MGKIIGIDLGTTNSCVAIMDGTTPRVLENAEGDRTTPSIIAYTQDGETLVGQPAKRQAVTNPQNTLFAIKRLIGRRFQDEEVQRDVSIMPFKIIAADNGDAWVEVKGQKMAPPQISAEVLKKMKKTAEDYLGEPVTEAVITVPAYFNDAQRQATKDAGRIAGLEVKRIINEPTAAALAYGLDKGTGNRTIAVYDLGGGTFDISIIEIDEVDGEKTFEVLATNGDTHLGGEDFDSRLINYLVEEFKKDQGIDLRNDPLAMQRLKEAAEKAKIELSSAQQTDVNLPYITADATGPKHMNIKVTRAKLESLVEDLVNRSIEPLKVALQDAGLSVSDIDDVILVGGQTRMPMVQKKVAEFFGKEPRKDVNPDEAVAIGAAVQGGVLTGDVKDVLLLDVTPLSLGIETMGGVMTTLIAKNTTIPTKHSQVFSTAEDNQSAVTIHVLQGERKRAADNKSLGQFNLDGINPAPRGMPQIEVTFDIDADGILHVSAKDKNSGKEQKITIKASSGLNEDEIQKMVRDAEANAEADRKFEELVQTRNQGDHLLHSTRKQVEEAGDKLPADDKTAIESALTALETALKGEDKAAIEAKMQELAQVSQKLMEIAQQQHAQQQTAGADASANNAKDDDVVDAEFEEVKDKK

c1ccc(CNc2nc(NCc3ccccc3)c3ccccc3n2)cc1 [DBeQ, N^2,N^4-dibenzylquinazoline-2,4-diamine]
Bmax (SPR signal at saturation), ClpB (wt ClpB): 1.09 ± 0.02
Hill coefficient, DBeQ binding to ClpB (wt ClpB; SPR, cooperative binding model): 2.3 ± 0.3 and ~2.3 and > 2
Kd (wt ClpB; apparent Kd, DBeQ binding to ClpB, SPR, 25 °C, cooperative binding model): 64.4 µM and ~60 µM
Bmax (SPR signal at saturation), DnaK (DnaK): 2.07 ± 0.20
Kd (DnaK; apparent Kd, DBeQ binding to DnaK, SPR, non-cooperative model, approximate, close to ligand solubility limit): 105 µM and ~100 µM
effect on ATPase of the two ATP-binding domains (D1, D2) (ClpB E279Q, E678Q): only the C-terminal one (i.e., D2) showed casein-induced activation and was affected by DBeQ
inhibition of basal ATPase of Trp/Phe ClpB variants [1]: became sensitive to inhibition
effect on growth of ΔclpB strain (E. coli MC4100ΔclpB): nearly eliminated; also recorded: effects were eliminated
effect on viability of dnaK756 (E. coli dnaK756): not affected

From article PMC7948422, “Repurposing p97 inhibitors for chemical modulation of the bacterial ClpB–DnaK bichaperone system” (The Journal of Biological Chemistry, 2020)
